According to patent publication US6492414B1, “Methods and compositions for the treatment and prevention of lung disease” (Allergan, Inc., priority 1999, dated 2002):

Columns and labels:
[1] = system: Sprague-Dawley rat pups; test: Alveolus formation (septation) in newborn rat pups, daily intraperitoneal injection, lung histology and morphometry; format: in vivo
Text: This retinoid, termed AGN 193174, has a structure defined by the formula [drawing 1]
Following sacrifice, rat lungs were fixed and histological sections prepared essentially as described in Massaro et al., Am. J. Physiol. 270: L305 (1996), incorporated by reference herein. The histological sections were viewed and photographs taken under light microscopy.
The differences in alveolar dimensions between =treated and untreated rat pups were so pronounced, they were quantitated by measuring the distance between alveolar walls (Lm) and the surface-to-volume ratio (S/V) of the gas-exchange structures (septa). The Lm in cottonseed oil-treated rats was 80 μm±2.8 μm (N=4) compared to 110 μm±7.3 μm (N=3) in RARβ agonist-treated rats (N=3; P=0.03 by Mann Whitney nonparametric analysis). The S/V was 504 μm^−1±18 μm^−1(N=4) in cottonseed oil-treated rats compared to 365 μm^−1±23 μm^−1(N=3) in RARβ agonist-treated rats (P=0.03).

[2] = system: RARβ; test: RAR isotype activity stated for the retinoid ligand (RARβ)
[3] = biological target: T1, RARγ (Homo sapiens, UniProt P13631); test: RAR isotype activity stated for the retinoid ligand (RARγ)
T1 sequence (P13631 1-454): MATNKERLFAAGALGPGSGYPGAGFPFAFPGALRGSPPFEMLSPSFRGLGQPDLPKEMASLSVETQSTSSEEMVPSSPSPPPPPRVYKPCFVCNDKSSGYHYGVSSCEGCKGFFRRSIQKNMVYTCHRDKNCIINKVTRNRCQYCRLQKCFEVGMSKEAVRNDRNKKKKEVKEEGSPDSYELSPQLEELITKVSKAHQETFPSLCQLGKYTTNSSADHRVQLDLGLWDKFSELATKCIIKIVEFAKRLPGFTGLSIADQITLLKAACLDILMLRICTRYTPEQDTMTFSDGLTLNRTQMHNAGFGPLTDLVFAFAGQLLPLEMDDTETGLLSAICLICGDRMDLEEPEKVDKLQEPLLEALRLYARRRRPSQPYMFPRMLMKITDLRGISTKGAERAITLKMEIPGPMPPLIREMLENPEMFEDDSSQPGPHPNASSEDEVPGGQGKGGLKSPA

[4] = system: RAR receptors; test: Receptor class specificity, RAR versus RXR
[5] = system: rats treated with elastase; settings: cited from earlier work
[6] = system: newborn rats; settings: cited from earlier work
[7] = system: all RAR isotypes; settings: cited from earlier work

| activity at RARγ [3] | Structure (SMILES) | alveolar size and degree of septation in histological sections versus cottonseed oil alone ([1]; age 14 days, treated daily from age 3 through 13 days, FIGS. 1A and 1B) | Lung volume versus cottonseed oil-treated rats ([1]; rat pups, 500 micrograms per kg i.p. daily from age 3 to 13 days) | activity at RARβ (agonist) [2] | activity at RARβ (antagonist (so in the source)) [2] | specificity RAR versus RXR receptors [4] | effect on elastase-induced destruction of alveolar walls [5] | effect on number of alveoli [6] | agonist activity at RAR isotypes [7] |
| --- | --- | --- | --- | --- | --- | --- | --- | --- | --- |
| antagonist activity | CC1(C)CC=C(c2cccs2)c2cc(C#Cc3ccc(C(=O)O)cc3)ccc21 [AGN 193174] | alveoli were larger, and the degree of sepatation less | the same in both rat groups | RARβ agonist activity | antagonist activity | specific to RAR receptors and not to RXR receptors |  |  |  |
|  | CC1=C(/C=C/C(C)=C/C=C/C(C)=C/C(=O)O)C(C)(C)CCC1 [ATRA, all-trans-retinoic acid] |  |  |  |  |  | appeared to reverse this destruction | induced the formation of an increased number of alveoli in rats without enlarging the lung | an agonist of all RAR isotypes |
